Laboratory results as given in patent US11840560B2, “Prodrugs and uses thereof” (Novo Nordisk A/S, priority 2022, dated 2023).
*1 amine or outer side, *2 acyl side, *3 side chain or, on linkers, in order; H or OH if unused. Where a SMILES comes first, the peptide text is derived from it. Side-chain parts run from the residue outwards. [ ]: non-standard residue; d: D form. The star is where a group is joined. N(2-Aminoethyl)Gly = O=C(CN(CCN[*:3])[*:1])[*:2]; C18 diacid = O=C(O)CCCCCCCCCCCCCCCCC(=O)*; C16 diacid = O=C(O)CCCCCCCCCCCCCCC(=O)*; γGlu = O=C(O)[C@H](CCC(=O)[*:2])N[*:1]; εLys = N[C@@H](CCCCN[*:1])C(=O)[*:2]; AEEA = NCCOCCOCC(=O)O; Aib = CC(C)(N)C(=O)O; Sar = CNCC(=O)O

Key:
in vivo = assay: in vivo; design: species or system beagle dogs; conditions: dog, po, 300 mg; for Tmax / half-life: male, beagle
Procedure: The purpose of this method is to determine the terminal half-life and plasma exposure in vivo of the compounds of the present invention after p.o. administration to beagle dogs, i.e. the terminal half-life and concentration of test substance that reaches circulation with time. This is done in a pharmacokinetic (PK) study, where these parameters of the compound in question are determined. By terminal half-life is generally meant the period of time it takes to halve a certain plasma concentration, measured after the initial distribution phase.
Tablet compositions comprising the test compounds obtained from Example 1 and SNAC (sodium N-(8-(2-hydroxybenzoyl)amino)caprylate) were prepared according to methods known to the person skilled in the art by mixing test substance with roller compacted SNAC and magnesium stearate as e.g. described in WO 2019/149880. Each tablet was comprised of 7.7 mg magnesium stearate, 2-4 mg of each compound tested, and 300 mg SNAC.
Male beagle dogs, 1-7 years of age and weighing 9-17 kg during the study period, were included in the study. The dogs were dosed in a fasting state. The dogs were group housed in pens (12 hours light: 12 hours dark), and fed individually and restrictedly once daily with Royal Canin Medium Adult dog food (Royal Canin Products, China Branch, or Brogaarden A/S, Denmark). The dogs were used for repeated PK studies with a suitable wash-out period between successive dosing. An appropriate acclimatisation period was given prior to initiation of the first PK study. All handling, dosing, and blood sampling of the animals were performed by trained and skilled staff. Before the studies, the dogs were fasted overnight and from 0 to 4 hours after dosing. The dogs were restricted to water 1 hour before dosing until 4 hours after dosing, but otherwise had adlibitum access to water during the whole period.
The compositions were administered by a single oral dosing to the dogs in groups of 6-8 dogs. The tablets were administered in the following manner: 10 min prior to tablet administration, the dogs may be dosed subcutaneously with approximately 3 nmol/kg of SEQ ID NO.: 7 ([…]), then tablets were placed in the back of the mouth of the dog to prevent chewing. The mouth was then closed, and 10 mL of tap water was given by syringe or gavage to facilitate swallowing of the tablet.
One blood sample was drawn before dosing, and additional samples were drawn at predefined time points after dosing, such as for up to 600 hours, to adequately cover the full plasma concentration-time absorption profile of the test substance. For each blood sample time point, approximately 0.8 mL of whole blood was collected in a 1.5 mL EDTA-coated tube, which was gently turned to mix the sample with EDTA. Blood samples were collected in EDTA buffer (8 mM) and then centrifuged at 4° C. and 2000 g for 10 minutes. Plasma was pipetted into Micronic tubes on dry ice, and kept at −20° C. or lower until analysis. Blood samples were taken as appropriate, for example from a venflon in the cephalic vein in the front leg for the first 2 hours and then with syringe from the jugular vein for the rest of the time points. The first few drops were allowed to drain from the venflon to avoid heparin saline from the venflon in the sample. All blood samples were collected into test tubes containing EDTA for stabilisation and kept on ice until centrifugation. Plasma was separated from whole blood by centrifugation and the plasma was stored at −20° C. or lower until analysis.
The plasma was analysed for test substance using LC-MS (Liquid Chromatography-Mass Spectrometry) as known to the person skilled in the art. […]

physchem = type: physicochemical; conditions: buffer, pH 7.4
Procedure: The assay was performed to investigate the conversion half-life of prodrug to drug of the prodrugs of the invention. The conversion half-life was investigated in vitro at pH 7.4 upon incubation at 37° C.
Test compounds were dissolved to a concentration of 100 μM in phosphate-buffered saline (140 mM NaCl, 2.07 mM KCl, 8.05 mM Na2HPO4, 1.96 mM KH2PO4, pH 7.4). Solution pH was measured after dissolution and adjusted to pH 7.4 with aqueous NaOH if necessary. The solution was filtered through a 0.22 μm syringe filter, then incubated in a water bath at 37° C. Aliquots were withdrawn at defined timepoints, e.g. every 24-72 hours, for LCMS analysis.
LCMS analysis was performed using the procedure defined in LCMS_A above. The AUC of the prodrug, active drug, and DKP were determined using UV detection at 214 nm, and the ratio of prodrug AUC over total AUC of prodrug plus active drug plus DKP was calculated. The negative natural logarithm of this ratio was plotted over time, and a linear regression of this relationship was then performed.
The prodrug to drug conversion half-life of the compounds of the invention was measured as described in General Methods for Measuring Conversion Half-life.

Compound	AUC/Dose (in vivo) [kg·h/L]	Cmax/Dose (in vivo) [kg/L]	Tmax (in vivo) [h]	half-life (in vivo) [h]	half-life at 100 μM (physchem) [h]
CC[C@H](C)[C@H](NC(=O)[C@H](CC(C)C)NC(=O)[C@H](Cc1c[nH]c2ccccc12)NC(=O)[C@H](CCC(N)=O)NC(=O)[C@@H](NC(=O)[C@H](Cc1ccccc1)NC(=O)[C@H](C)NC(=O)[C@H](CCCCNC(=O)COCCOCCNC(=O)COCCOCCNC(=O)CC[C@H](NC(=O)CCCCCCCCCCCCCCCCCCC(=O)O)C(=O)O)NC(=O)[C@H](CCC(N)=O)NC(=O)[C@H](C)NC(=O)[C@@H](NC(=O)[C@H](CCCCN)NC(=O)[C@H](CC(=O)O)NC(=O)[C@H](CC(C)C)NC(=O)C(C)(C)NC(=O)[C@@H](NC(=O)[C@H](CO)NC(=O)[C@H](Cc1ccc(O)cc1)NC(=O)[C@H](CC(=O)O)NC(=O)[C@H](CO)NC(=O)[C@@H](NC(=O)[C@H](Cc1ccccc1)NC(=O)[C@@H](NC(=O)CNC(=O)[C@H](CCC(=O)O)NC(=O)C(C)(C)NC(=O)[C@H](Cc1ccc(O)cc1)NC(=O)[C@@H](NC(=O)[C@@H](N)CCCCNC(=O)CC[C@H](NC(=O)CCCCCCCCCCCCCCC(=O)O)C(=O)O)C(C)C)[C@@H](C)O)[C@@H](C)O)[C@@H](C)CC)[C@@H](C)CC)C(C)C)C(=O)N[C@@H](C)C(=O)NCC(=O)NCC(=O)N1CCC[C@H]1C(=O)N[C@@H](CO)C(=O)N[C@@H](CO)C(=O)NCC(=O)N[C@@H](C)C(=O)N1CCC[C@H]1C(=O)N1CCC[C@H]1C(=O)N1CCC[C@H]1C(=O)N[C@@H](CO)C(N)=O [Non-converting compound 4]	18.9	0.16	7	136	
CC[C@H](C)[C@H](NC(=O)[C@H](Cc1ccccc1)NC(=O)[C@H](CCC(=O)O)NC(=O)[C@H](CCCNC(=N)N)NC(=O)[C@H](C)NC(=O)[C@H](C)NC(=O)[C@H](CCC(N)=O)NC(=O)[C@H](CCC(=O)O)NC(=O)[C@H](CCC(=O)O)NC(=O)[C@H](CC(C)C)NC(=O)[C@H](CC(C)C)NC(=O)[C@@H](NC(=O)[C@H](CO)NC(=O)[C@H](Cc1ccc(O)cc1)NC(=O)[C@H](CC(=O)O)NC(=O)[C@H](CO)NC(=O)[C@@H](NC(=O)[C@H](Cc1ccccc1)NC(=O)[C@@H](NC(=O)CNC(=O)[C@H](CCC(=O)O)NC(=O)C(C)(C)NC(=O)[C@@H](N)Cc1ccc(O)cc1)[C@@H](C)O)[C@@H](C)O)[C@@H](C)CC)C(=O)N[C@@H](CCC(=O)O)C(=O)N[C@@H](Cc1c[nH]c2ccccc12)C(=O)N[C@@H](CC(C)C)C(=O)N[C@@H](CC(C)C)C(=O)N[C@@H](C)C(=O)NCC(=O)NCC(=O)N1CCC[C@H]1C(=O)N[C@@H](CO)C(=O)N[C@@H](CCCCNC(=O)[C@@H](N)CCCCNC(=O)[C@@H](N)CCCCNC(=O)CC[C@H](NC(=O)CCCCCCCCCCCCCCCCC(=O)O)C(=O)O)C(=O)NCC(=O)N[C@@H](C)C(=O)N1CCC[C@H]1C(=O)N1CCC[C@H]1C(=O)N1CCC[C@H]1C(=O)N[C@@H](CO)C(=O)O [Parent compound 3] (H-Y[Aib]EGTFTSDYSILLEEQAAREFIEWLLAGGPSK([εLys-εLys-γGlu-C18 diacid])GAPPPS-OH)	21.4	0.22			
CC[C@H](C)[C@H](NC(=O)[C@H](CC(C)C)NC(=O)[C@H](Cc1c[nH]c2ccccc12)NC(=O)[C@H](CCC(N)=O)NC(=O)[C@@H](NC(=O)[C@H](Cc1ccccc1)NC(=O)[C@H](C)NC(=O)[C@H](CCCCNC(=O)COCCOCCNC(=O)COCCOCCNC(=O)CC[C@H](NC(=O)CCCCCCCCCCCCCCCCCCC(=O)O)C(=O)O)NC(=O)[C@H](CCC(N)=O)NC(=O)[C@H](C)NC(=O)[C@@H](NC(=O)[C@H](CCCCN)NC(=O)[C@H](CC(=O)O)NC(=O)[C@H](CC(C)C)NC(=O)C(C)(C)NC(=O)[C@@H](NC(=O)[C@H](CO)NC(=O)[C@H](Cc1ccc(O)cc1)NC(=O)[C@H](CC(=O)O)NC(=O)[C@H](CO)NC(=O)[C@@H](NC(=O)[C@H](Cc1ccccc1)NC(=O)[C@@H](NC(=O)CNC(=O)[C@H](CCC(=O)O)NC(=O)C(C)(C)NC(=O)[C@@H](N)Cc1ccc(O)cc1)[C@@H](C)O)[C@@H](C)O)[C@@H](C)CC)[C@@H](C)CC)C(C)C)C(=O)N[C@@H](C)C(=O)NCC(=O)NCC(=O)N1CCC[C@H]1C(=O)N[C@@H](CO)C(=O)N[C@@H](CO)C(=O)NCC(=O)N[C@@H](C)C(=O)N1CCC[C@H]1C(=O)N1CCC[C@H]1C(=O)N1CCC[C@H]1C(=O)N[C@@H](CO)C(N)=O [Parent compound 5]	13.0	0.22	1	134	
H-A[N(2-Aminoethyl)Gly]([γGlu-C16 diacid])Y[Aib]EGTFTSDYSILLEEQAAREFIEWLLAGGPSK([AEEA-AEEA-γGlu-C16 diacid])GAPPPS-OH [Compound 4]					97
H-D[N(2-Aminoethyl)Gly]([γGlu-C16 diacid])Y[Aib]EGTFTSDYSILLEEQAAREFIEWLLAGGPSK([AEEA-AEEA-γGlu-C16 diacid])GAPPPS-OH [Compound 7]					38
H-G[N(2-Aminoethyl)Gly]([γGlu-C16 diacid])Y[Aib]EGTFTSDYSILLEK([εLys-εLys-γGlu-C18 diacid])QAAREFIEWLLAGGPSSGAPPPS-OH [Compound 17]	30.4	0.30	1.5	105	
H-K([γGlu-C16 diacid])VY[Aib]EGTFTSDYSILLEEQAAREFIEWLLAGGPSK([εLys-εLys-γGlu-C16 diacid])GAPPPS-OH [Non-converting compound 2]	10.8	0.13	1.3	130	
H-K([γGlu-C16 diacid])VY[Aib]EGTFTSDYSILLEK([εLys-εLys-γGlu-C18 diacid])QAAREFIEWLLAGGPSSGAPPPS-OH [Non-converting compound 3]	31.4	0.27	4	115	
H-K([γGlu-γGlu-C16 diacid])[Sar]Y[Aib]EGTFTSDYSILLEEQAAREFIEWLLAGGPSK([AEEA-AEEA-γGlu-C16 diacid])GAPPPS-OH [Compound 8]					125
H-P[N(2-Aminoethyl)Gly]([γGlu-C16 diacid])Y[Aib]EGTFTSDYSILLEEQAAREFIEWLLAGGPSK([AEEA-AEEA-γGlu-C16 diacid])GAPPPS-OH [Compound 6]					440
H-[dK]([εLys-γGlu-C16 diacid])[Sar]Y[Aib]EGTFTSDYSILLEEQAAREFIEWLLAGGPSK([AEEA-AEEA-γGlu-C16 diacid])GAPPPS-OH [Compound 11]					182
